Data published in patent publication US4104390A, “Thieno [2,3-c] and [3,2-c] pyridines” (Parcor, priority 1976, dated 1978).
Read-outs that look alike come from different tables or passages of the source.

How the values were obtained:
[1] = system: A.D.P.-induced blood-platelet aggregation; assay: A.D.P.-induced blood-platelet aggregation; type: in vivo, Wistar rats; conditions: rats, 100 mg/kg orally, 3 hours after treatment, 10 μM A.D.P. solution, with respect to control group; for inhibition at 100 mg/kg: Rattus norvegicus, po
Procedure: (§1) Blood is taken from the jugular vein of Wistar rats. From this citrated blood, and after centrifugation, is reconstituted a plasma containing 600,000 ± 20,000 blood-platelets per ml which is used in all aggregation determinations.
(§2) 0.4 ml plasma is placed in a siliconized tube provided with a magnet bar, also siliconized. The tube is introduced into an aggregometer coupled with an apparatus for recording optical density variations. When light transmission has reached a stable value, 0.5 ml of a solution containing 10 μM A.D.P. (Adenosine-Di-Phosphate) is introduced into the tube.
(§3) Blood-platelet aggregation causes an increase of light transmission followed by a decrease subsequent to the deaggregation phase.
(§4) The maximal optical density variation thus determined characterizes the intensity of the aggregation.
(§5) Different groups of 20 rats are used, each group being orally administered a test derivative at a dosage of 100 mg/kg.

[2] = system: collagen-induced blood-platelet aggregation; assay: Collagen-induced blood-platelet aggregation; type: in vivo, Wistar rats; conditions: rats, 100 mg/kg orally, 3 hours after treatment, collagen (bovine tendon extract), with respect to control group; for inhibition at 100 mg/kg: Rattus norvegicus, po, read-out: Percent inhibition of blood-platelet aggregation, Collagen
Procedure: as §1, §2, §3, §4
The A.D.P. solution is substituted with a collagen solution (bovine tendon extract).
as §5

[3] = system: carrageenin-induced localized edema; assay: Carrageenin-induced localized edema method; type: in vivo; conditions: rats, 100 mg/kg orally at -1, 0, 1 and 2.5 hours; for inhibition in vivo at 100 mg/kg: Rattus norvegicus, po
Procedure: (a) Carrageenin-induced localized edema method
0.1 ml of a 1% carrageenin solution is injected in the metatarsal flexor muscles of the right hind limb of rats at time 0. The animals of the treated group are additionally orally administered 100 mg/kg of the test derivative, respectively one hour prior to injection of the phlogogenic agent, simultaneously with said injection, and then 1 hour and 2.5 hours thereafter. The determinations effected by means of a ROCH micrometer at times 0, 1 hour, 2 hours, 3 hours and 5 hours after carrageenin administration make it possible to determine, as a function of time, the percent anti-inflammatory activity with respect to the reference group.

[4] = system: ovalbumen-induced systemic edema; assay: Ovalbumen-induced systemic edema method; type: in vivo; conditions: rats, 100 mg/kg orally 1 hour before and with ovalbumen; for inhibition in vivo at 100 mg/kg: Rattus norvegicus, po
Procedure: (b) Ovalbumen-induced systemic edema method
Simultaneous injection of 1 ml ovalbumen and 0.5 ml of a 1% aqueous Evans Blue solution is effected in rats. On the other hand, the animals of the treated group are administered orally 100 mg/kg of the test derivative one hour prior to ovalbumen administration and simultaneously with said administration. The intensity of the phenomenon thus induced is scored according to a scale from 1 to 5 depending on the progress of the inflammatory syndrome. The mean intensity of the edem and the percent decrease of the edema reaction with respect to the control group are thus determined as a function of time.

[5] = 1 hour after carrageenin, read-out: Percent anti-inflammatory activity after 1 hour
[6] = 2 hours after carrageenin, read-out: Percent anti-inflammatory activity after 2 hours
[7] = 3 hours after carrageenin, read-out: Percent anti-inflammatory activity after 3 hours
[8] = 5 hours after carrageenin, read-out: Percent anti-inflammatory activity after 5 hours
[9] = 2 hours after ovalbumen, read-out: Percent anti-inflammatory activity after 2 hours
[10] = 3 hours after ovalbumen, read-out: Percent anti-inflammatory activity after 3 hours
[11] = read-out: Percent inhibition of blood-platelet aggregation, A.D.P.

SMILES	inhibition at 100 mg/kg ([1]; 3 h, heading: Percent inhibition of blood-platelet aggregation) [%]	inhibition at 100 mg/kg [2] [%]	inhibition in vivo at 100 mg/kg [3, 5] [%]	inhibition in vivo at 100 mg/kg [3, 6] [%]	inhibition in vivo at 100 mg/kg [3, 7] [%]	inhibition in vivo at 100 mg/kg [3, 8] [%]	inhibition in vivo at 100 mg/kg [4, 9] [%]	inhibition in vivo at 100 mg/kg [4, 10] [%]	inhibition at 100 mg/kg [1, 11] [%]	Percent inhibition of blood-platelet aggregation, A.D.P. [1] [%]	Percent inhibition of blood-platelet aggregation, Collagen [2] [%]	Percent anti-inflammatory activity after 1 hour ([3]; 1 hour after carrageenin) [%]	Percent anti-inflammatory activity after 2 hours ([3]; 2 hours after carrageenin) [%]	Percent anti-inflammatory activity after 3 hours ([3]; 3 hours after carrageenin) [%]	Percent anti-inflammatory activity after 5 hours ([3]; 5 hours after carrageenin) [%]	Percent anti-inflammatory activity after 2 hours ([4]; 2 hours after ovalbumen) [%]	Percent anti-inflammatory activity after 3 hours ([4]; 3 hours after ovalbumen) [%]
CC1NCc2ccsc2C1c1ccccc1 (stereo not drawn) [derivative n°2, 6-Methyl-7-phenyl-4,5,6,7-tetrahydro-thieno[3,2-c]pyridine]	62.4	92.7	42	48	51	54	42	50	–	–	–	–	–	–	–	–	–
c1ccc(C2CNCc3ccsc32)cc1 (stereo not drawn) [derivative n°4, 7-Phenyl-4,5,6,7-tetrahydro-thieno[3,2-c]pyridine]	–	95	38	44	49	53	54	62	64	–	–	–	–	–	–	–	–
CN1Cc2ccsc2C(c2ccccc2)C1 (stereo not drawn) [derivative n°6, 5-Methyl-7-phenyl-4,5,6,7-tetrahydro-thieno[3,2-c]pyridine]	–	90.4	45	52	56	58	47	55	61.7	–	–	–	–	–	–	–	–
COc1ccc(C2CN(Cc3ccccc3Cl)Cc3sccc32)cc1 (stereo not drawn) [derivative n°7, 6-o-Chlorobenzyl-4-p-methoxyphenyl-4,5,6,7-tetrahydro-thieno[2,3-c]pyridine]	–	90.7	44	50	54	59	52	59	61.5	–	–	–	–	–	–	–	–
N#Cc1ccccc1CN1Cc2sccc2C(c2ccccc2)C1 (stereo not drawn) [derivative n°8, 6-o.Cyanobenzyl-4-phenyl-4,5,6,7-tetrahydro-thieno[2,3-c]pyridine]	–	92.5	42	49	53	56	46	54	63.2	–	–	–	–	–	–	–	–
Clc1ccc(C2CN(Cc3ccccc3Cl)Cc3sccc32)cc1 (stereo not drawn) [derivative n°9, 6-o.Chlorobenzyl-4-p.chlorophenyl-4,5,6,7-tetrahydro-thieno[2,3-c]pyridine]	–	93.8	44	52	55	57	48	56	64.3	–	–	–	–	–	–	–	–
Cc1ccc(C2CN(Cc3ccccc3Cl)Cc3sccc32)cc1 (stereo not drawn) [derivative n°10, 6-o.Chlorobenzyl-4-p.tolyl-4,5,6,7-tetrahydrothieno[2,3-c]pyridine]	–	96	38	45	48	52	53	60	65	–	–	–	–	–	–	–	–
Clc1ccccc1CN1Cc2sccc2C(c2ccccc2)C1 (stereo not drawn) [derivative n°11, 6-o.Chlorobenzyl-4-phenyl-4,5,6,7-tetrahydrothieno[2,3-c]pyridine]	–	91.2	39	45	49	55	51	58	62.8	–	–	–	–	–	–	–	–
c1ccc(CN2Cc3sccc3C(c3ccccc3)C2)cc1 (stereo not drawn) [derivative n°12, 6-Benzyl-4-phenyl-4,5,6,7-tetrahydro-thieno[2,3-c]pyridine]	–	93.3	47	53	57	60	47	55	63.7	–	–	–	–	–	–	–	–
Fc1ccccc1CN1Cc2sccc2C(c2ccccc2)C1 (stereo not drawn) [derivative n°13, 6-o.Fluorobenzyl-4-phenyl-4,5,6,7-tetrahydrothieno[2,3-c]pyridine]	–	94.8	46	51	55	57	43	50	64.3	–	–	–	–	–	–	–	–
COc1cc(CN2Cc3sccc3C(c3ccccc3)C2)cc(OC)c1OC (stereo not drawn) [derivative n°14, 4-Phenyl-6-(3,4,5-trimethoxy-benzyl)-4,5,6,7-tetrahydro-thieno[2,3-c]pyridine]	–	93.9	37	44	49	54	43	52	64.1	–	–	–	–	–	–	–	–
COC(=O)c1ccccc1CN1Cc2sccc2C(c2ccccc2)C1 (stereo not drawn) [derivative n°15, 6-o.Methoxycarbonylbenzyl-4-phenyl-4,5,6,7-tetrahydro-thieno[2,3-c]pyridine]	–	92.3	39	47	50	54	54	62	61.7	–	–	–	–	–	–	–	–
O=C(O)c1ccccc1CN1Cc2sccc2C(c2ccccc2)C1 (stereo not drawn) [derivative n°16, 6-o.Carboxybenzyl-4-phenyl-4,5,6,7-tetrahydro-thieno[2,3-c]pyridine]	–	94.1	39	45	50	52	49	56	63.2	–	–	–	–	–	–	–	–
O=[N+]([O-])c1ccc(CN2Cc3sccc3C(c3ccccc3)C2)cc1 (stereo not drawn) [derivative n°17, 6-p.Nitrobenzyl-4-phenyl-4,5,6,7-tetrahydro-thieno[2,3-c]pyridine]	–	95	42	50	54	58	43	51	63.9	–	–	–	–	–	–	–	–
Cc1ccc(N2Cc3sccc3C(c3ccccc3)C2)cc1 (stereo not drawn) [derivative n°18, 4-Phenyl-6-p.tolyl-4,5,6,7-tetrahydro-thieno[2,3-c]pyridine]	–	–	–	–	–	–	–	–	–	62.5	93.5	40	48	53	56	47	56
